Reference: patent US9695155B2, “Herbicidal substituted pyrimidinyloxy benzene compounds” (E. I. DU PONT DE NEMOURS AND COMPANY, priority 2013, dated 2017)

Tests used:
giant foxtail [1] = assay: Test A postemergence; assay type: in vivo, Setaria faberii; details: Setaria faberi, post-emergence, 240 h
Outline: (§1)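 Visual injury scored 0–100 (100 = complete control) against untreated controls about 10 days after treatment in a greenhouse. Test chemicals, formulated with surfactant in non-phytotoxic solvent, were sprayed on soil preemergence or on 2-10 cm, one- to two-leaf plants postemergence.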

johnsongrass = assay: Test C postemergence; assay type: in vivo, Sorghum halepense; details: Sorghum halepense, post-emergence
Outline: (§2)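 Seeds are planted in blended loam soil and sand and treated preemergence, while seedlings in a peat moss/vermiculite medium receive postemergence sprays at 2 to 18 cm height. All plants stay in the greenhouse for 13 to 15 days before visual comparison with controls on a 0–100 scale.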

corn [2] = assay: Test C postemergence; assay type: in vivo, Zea mays; details: Zea mays, post-emergence
Outline: as §2

giant foxtail [3] = assay: Test C postemergence; assay type: in vivo, Setaria faberii; details: Setaria faberi, post-emergence
Outline: as §2

velvetleaf [4] = assay: Test C postemergence; assay type: in vivo, Abutilon theophrasti; details: Abutilon theophrasti, post-emergence
Outline: as §2

Heteranthera limosa = assay: Test B flooded paddy test; assay type: in vivo; details: Heteranthera limosa, Flood, 250 g ai/ha; 0 to 100 scale where 0 is no effect and 100 is complete control; read-out: Plant response rating, Ducksalad
Outline: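 Seedlings are raised to two leaves, flooded to a depth of 3 cm and dosed by adding the compound to the floodwater. Water level is kept constant, and plants are scored visually versus controls 13–15 days later (0 = no effect, 100 = complete control).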

corn [5] = assay: Test A preemergence; assay type: in vivo, Zea mays; details: Zea mays, pre-emergence, 240 h
Outline: as §1

barnyardgrass = assay: Test A postemergence; assay type: in vivo, Echinochloa crus-galli; details: Echinochloa crus-galli, post-emergence, 240 h
Outline: as §1

oilseed rape = assay: Test C postemergence; assay type: in vivo, Brassica napus; details: Brassica napus, post-emergence
Outline: as §2

pigweed = assay: Test C postemergence; assay type: in vivo, Amaranthus retroflexus; details: Amaranthus retroflexus, post-emergence
Outline: as §2

morningglory [6] = assay: Test A postemergence; assay type: in vivo, Ipomoea spp.; details: Ipomoea, post-emergence, 240 h
Outline: as §1

large (Lg) crabgrass = assay: Test A preemergence; assay type: in vivo, Digitaria sanguinalis; details: Digitaria sanguinalis, pre-emergence, 240 h
Outline: as §1

velvetleaf [7] = assay: Test A preemergence; assay type: in vivo, Abutilon theophrasti
Outline: as §1

corn [8] = assay: Test A postemergence; assay type: in vivo, Zea mays; details: Zea mays, post-emergence, 240 h
Outline: as §1

waterhemp = assay: Test C postemergence; assay type: in vivo, Amaranthus rudis; details: Amaranthus tuberculatus, post-emergence
Outline: as §2

morningglory [9] = assay: Test C postemergence; assay type: in vivo, Ipomoea coccinea; details: Ipomoea, post-emergence
Outline: as §2

[10] = 125 g ai/ha, 0 to 100 scale where 0 is no effect and 100 is complete control

## N#Cc1cccc(Oc2ncc(Cl)cn2)c1-n1cc(Br)cn1 [Compound 52, 2-(4-bromo-1H-pyrazol-1-yl)-3-[(5-chloro-2-pyrimidinyl)oxy]benzonitrile]
Giant foxtail [1]; 125 g ai/ha, 0 to 100 scale where 0 is no effect and 100 is complete control, read-out: Plant response rating, Foxtail, Giant
  pest or weed control at 125 g/ha: 90%
Giant foxtail [1]; 500 g ai/ha, 0 to 100 scale, 0 no effect, 100 complete control, read-out: Plant response rating Foxtail, Giant
  pest or weed control at 500 g/ha: 100%
johnsongrass; 125 g ai/ha, postemergence, read-out: Plant response rating (0 to 100), Johnsongrass
  pest or weed control at 125 g/ha: 5%
johnsongrass; 250 g ai/ha, postemergence, read-out: Plant response rating (0 to 100), Johnsongrass
  pest or weed control at 250 g/ha: 10%
johnsongrass; Postemergence, 31 g ai/ha, scale 0 to 100 (0 no effect, 100 complete control), 13 to 15 days, read-out: Plant response rating, Johnsongrass
  pest or weed control at 31 g/ha: 5%
johnsongrass; Postemergence, 62 g ai/ha, scale 0 to 100 (0 no effect, 100 complete control), read-out: Plant response rating, Johnsongrass
  pest or weed control at 62 g/ha: 5%
Corn [2]; 125 g ai/ha, postemergence, read-out: Plant response rating (0 to 100), Corn
  plant injury at 125 g/ha: 10%
Corn [2]; 250 g ai/ha, postemergence, read-out: Plant response rating (0 to 100), Corn
  plant injury at 250 g/ha: 10%
Corn [2]; Postemergence, 31 g ai/ha, scale 0 to 100 (0 no effect, 100 complete control), 13 to 15 days
  Corn plant response rating (crop injury, 0 = no effect, 100 = complete kill) at 31 g/ha: 5%
Corn [2]; Postemergence, 62 g ai/ha, scale 0 to 100 (0 no effect, 100 complete control)
  Corn plant response rating (crop injury, 0 = no effect, 100 = complete kill) at 62 g/ha: 10%
Giant foxtail [3]; 125 g ai/ha, postemergence, read-out: Plant response rating (0 to 100), Foxtail, Giant
  pest or weed control at 125 g/ha: 70%
Giant foxtail [3]; 250 g ai/ha, postemergence, read-out: Plant response rating (0 to 100), Foxtail, Giant
  pest or weed control at 250 g/ha: 70%
Giant foxtail [3]; Postemergence, 31 g ai/ha, scale 0 to 100 (0 no effect, 100 complete control), 13 to 15 days, read-out: Plant response rating, Foxtail, Giant
  pest or weed control at 31 g/ha: 45%
Giant foxtail [3]; Postemergence, 62 g ai/ha, scale 0 to 100 (0 no effect, 100 complete control), read-out: Plant response rating, Foxtail, Giant
  pest or weed control at 62 g/ha: 50%
Velvetleaf [4]; 125 g ai/ha, postemergence, read-out: Plant response rating (0 to 100), Velvetleaf
  pest or weed control at 125 g/ha: 70%
Velvetleaf [4]; 250 g ai/ha, postemergence, read-out: Plant response rating (0 to 100), Velvetleaf
  pest or weed control at 250 g/ha: 90%
Velvetleaf [4]; Postemergence, 31 g ai/ha, scale 0 to 100 (0 no effect, 100 complete control), 13 to 15 days, read-out: Plant response rating, Velvetleaf
  pest or weed control at 31 g/ha: 50%
Velvetleaf [4]; Postemergence, 62 g ai/ha, scale 0 to 100 (0 no effect, 100 complete control), read-out: Plant response rating, Velvetleaf
  pest or weed control at 62 g/ha: 60%
Heteranthera limosa
  pest or weed control at 250 g/ha: 70%
Corn [5]; [10]
  Corn plant response rating (crop injury, 0 = no effect, 100 = complete kill) at 125 g/ha: 20%
Corn [5]; 500 g ai/ha, 0 to 100 scale, 0 no effect, 100 complete control, approx. 10 days, read-out: Corn plant response rating
  plant injury at 500 g/ha: 80%
barnyardgrass; 125 g ai/ha, 0 to 100 scale where 0 is no effect and 100 is complete control, read-out: Plant response rating, Barnyardgrass
  pest or weed control at 125 g/ha: 90%
barnyardgrass; 500 g ai/ha, 0 to 100 scale, 0 no effect, 100 complete control, read-out: Plant response rating Barnyardgrass
  pest or weed control at 500 g/ha: 100%
Oilseed rape; 125 g ai/ha, postemergence, read-out: Plant response rating (0 to 100), Oilseed Rape
  plant injury at 125 g/ha: 70%
Oilseed rape; 250 g ai/ha, postemergence, read-out: Plant response rating (0 to 100), Oilseed Rape
  plant injury at 250 g/ha: 85%
Oilseed rape; Postemergence, 31 g ai/ha, scale 0 to 100 (0 no effect, 100 complete control), 13 to 15 days, read-out: Plant response rating, Oilseed Rape
  plant injury at 31 g/ha: 25%
Oilseed rape; Postemergence, 62 g ai/ha, scale 0 to 100 (0 no effect, 100 complete control), read-out: Plant response rating, Oilseed Rape
  plant injury at 62 g/ha: 40%
pigweed; 125 g ai/ha, postemergence, read-out: Plant response rating (0 to 100), Pigweed
  pest or weed control at 125 g/ha: 80%
pigweed; 250 g ai/ha, postemergence, read-out: Plant response rating (0 to 100), Pigweed
  pest or weed control at 250 g/ha: 95%
pigweed; Postemergence, 31 g ai/ha, scale 0 to 100 (0 no effect, 100 complete control), 13 to 15 days, read-out: Plant response rating, Pigweed
  pest or weed control at 31 g/ha: 60%
pigweed; Postemergence, 62 g ai/ha, scale 0 to 100 (0 no effect, 100 complete control), read-out: Plant response rating, Pigweed
  pest or weed control at 62 g/ha: 60%
Morningglory [6]; 125 g ai/ha, 0 to 100 scale where 0 is no effect and 100 is complete control, read-out: Plant response rating, Morningglory
  pest or weed control at 125 g/ha: 100%
Morningglory [6]; 500 g ai/ha, 0 to 100 scale, 0 no effect, 100 complete control, read-out: Plant response rating Morningglory
  pest or weed control at 500 g/ha: 100%
Large (Lg) crabgrass; 125 g ai/ha, 0 to 100 scale where 0 is no effect and 100 is complete control, read-out: Plant response rating, Crabgrass, Large
  pest or weed control at 125 g/ha: 100%
Large (Lg) crabgrass; 500 g ai/ha, 0 to 100 scale, 0 no effect, 100 complete control, approx. 10 days, read-out: Crabgrass, Large plant response rating
  pest or weed control at 500 g/ha: 100%
Velvetleaf [7]; [10]
  Plant response rating, Velvetleaf: 100
Velvetleaf [7]; Abutilon theophrasti, pre-emergence, 240 h, 500 g ai/ha, 0 to 100 scale, 0 no effect, 100 complete control, approx. 10 days, read-out: Velvetleaf plant response rating
  pest or weed control at 500 g/ha: 100%
Corn [8]; [10]
  Corn plant response rating (crop injury, 0 = no effect, 100 = complete kill) at 125 g/ha: 90%
Corn [8]; 500 g ai/ha, 0 to 100 scale, 0 no effect, 100 complete control, read-out: Plant response rating Corn
  plant injury at 500 g/ha: 90%
waterhemp; 125 g ai/ha, postemergence, read-out: Plant response rating (0 to 100), Waterhemp
  pest or weed control at 125 g/ha: 75%
waterhemp; 250 g ai/ha, postemergence, read-out: Plant response rating (0 to 100), Waterhemp
  pest or weed control at 250 g/ha: 95%
waterhemp; Postemergence, 31 g ai/ha, scale 0 to 100 (0 no effect, 100 complete control), 13 to 15 days, read-out: Plant response rating, Waterhemp
  pest or weed control at 31 g/ha: 70%
waterhemp; Postemergence, 62 g ai/ha, scale 0 to 100 (0 no effect, 100 complete control), read-out: Plant response rating, Waterhemp
  pest or weed control at 62 g/ha: 70%
Morningglory [9]; 125 g ai/ha, postemergence, read-out: Plant response rating (0 to 100), Morningglory
  pest or weed control at 125 g/ha: 95%
Morningglory [9]; 250 g ai/ha, postemergence, read-out: Plant response rating (0 to 100), Morningglory
  pest or weed control at 250 g/ha: 100%
Morningglory [9]; Postemergence, 31 g ai/ha, scale 0 to 100 (0 no effect, 100 complete control), 13 to 15 days, read-out: Plant response rating, Morningglory
  pest or weed control at 31 g/ha: 80%
Morningglory [9]; Postemergence, 62 g ai/ha, scale 0 to 100 (0 no effect, 100 complete control), read-out: Plant response rating, Morningglory
  pest or weed control at 62 g/ha: 80%
